Test results published in US9499529B2 (California State University Fresno, priority 2013, dated 2016).

Legend:
Format in all cases: cell-based, human
[1] = system: DU-145 prostate cancer cells; experiment: In vitro cytotoxicity against DU-145 prostate cancer cells; conditions: DU-145 cells; for IC50: five days
Procedure: (§1) The half maximal inhibitory concentration (IC50) is a measure of the effectiveness of a substance in inhibiting a specific biological or biochemical function. It is commonly used as a measure of antagonist drug potency.
Cell numbers were counted with a cell viability analyzer (Beckman-Coulter).
(§2) A preliminary dose response curve was prepared from the collected data by means well known to those of ordinary skill in the art.
(§3) The six different concentrations fell within a selected linear concentration range determined by reference to the preliminary dose response curve and efforts to estimate the concentration at which 50% of the cell growth would be inhibited. The selected six different concentrations were used to further fill out the dose response curve to pinpoint a more exact IC50 value.

[2] = system: PC-3 prostate cancer cells; experiment: In vitro cytotoxicity against PC-3 prostate cancer cells; conditions: PC-3 cells; for IC50: five days
Procedure: as §1
Cell cultures were maintained in 5% carbon dioxide at a temperature of 37° C. […] Cell numbers were counted with a cell viability analyzer (Beckman-Coulter). […] A preliminary dose response curve was prepared from the collected data by means well known to those of ordinary skill in the art.
as §3

[3] = system: HeLa cervical cancer cells; experiment: HeLa cell viability after treatment with analog (cell count, cell viability analyzer); conditions: three days, relative to DMSO vehicle
Procedure: Cell numbers were counted with a cell viability analyzer (Beckman-Coulter). The ratio of drug treated viable cell numbers to control vehicle (DMSO) treated viable cell numbers was defined as percentage viability. […] Compound nos.
The HeLa cells used in the experiments summarized by Table 5 were cultured in RPMI-1640 medium supplemented with 10% FBS, 4 mM glutamine, 1 mM sodium pyruvate, 100 IU/mL penicillin, 100 ug/mL streptomycin and 0.25 ug/mL amphotericin. The HeLa cells were plated in 24-well plates at a density of 20,000 cells in each well in 10% FBS RPMI-1640. […] Cell numbers were counted with a cell viability analyzer (Beckman-Coulter). […]

[4] = system: HeLa cervical cancer cells; experiment: In vitro cytotoxicity against HeLa cervical cancer cells; conditions: for IC50: three days
Procedure: as §1
Cell numbers were counted with a cell viability analyzer (Beckman-Coulter). The ratio of drug treated viable cell numbers to vehicle treated viable cell numbers was defined as percentage viability.
as §2, §3

Row | Structure (SMILES) | IC50 [1] [µM] | IC50 (curcumin)/IC50 (analog) [2] | IC50 [2] [µM] | HeLa Cell viability after treatment with analog (% viability) ([3]; 1 μM) [%] | HeLa Cell viability after treatment with analog (% viability) ([3]; 10 μM) [%] | IC50 [4] [µM] | IC50 (curcumin)/IC50 (analog) [1] | IC50 (curcumin)/IC50 (analog) [4]
1 | O=C1C(=Cc2cscn2)CCCC1=Cc1cscn1 [Compound 16] | 0.075 | 16.5 | 0.12 | 79 | 15.8 | – | – | –
2 | CCC(C)n1ccnc1C=C1CN(C)CC(=Cc2nccn2C(C)CC)C1=O (stereo not shown) [Compound 2] | 0.01 | – | 6.63 | 111.1 | 95.9 | – | – | –
3 | CC(C)Cn1c(/C=C/C(=O)/C=C/c2nc3ccccc3n2CC(C)C)nc2ccccc21 [Compound 41] | – | – | – | 5.72 | – | 0.321 | – | –
4 | Cc1noc(C)c1/C=C/C(=O)/C=C/c1c(C)noc1C [Compound 30] | – | – | – | 67 | – | – | – | –
5 | O=C1C(=Cc2nccs2)CCCC1=Cc1nccs1 [Compound 15] | 0.12 | 18 | 0.11 | 78 | 9.7 | – | – | –
6 | CC(C)CCn1ccnc1/C=C/C(=O)/C=C/c1nccn1CCC(C)C [Compound 33] | – | – | – | 3.0 | – | 0.23 | – | –
7 | CC(C)Cn1ccnc1C=C1CCCC(=Cc2nccn2CC(C)C)C1=O [Compound 12] | 0.36 | 4.2 | 0.47 | 100 | 94.5 | – | 0.8 | –
8 | O=C(/C=C/c1cocn1)/C=C/c1cocn1 [Compound 37] | – | – | – | 72.9 | – | – | – | –
9 | CN1CC(=Cc2nccs2)C(=O)C(=Cc2nccs2)C1 [Compound 5] | 0.046 | 4.7 | 0.42 | 51.7 | 21.6 | – | – | –
10 | Cc1nc(/C=C/C(=O)/C=C/c2coc(C)n2)co1 [Compound 26] | 0.75 | 2.4 | 0.84 | 100 | 65.9 | – | 0.4 | –
11 | CCC(CC)n1c(/C=C/C(=O)/C=C/c2nc3ccccc3n2C(CC)CC)nc2ccccc21 [Compound 45] | – | – | – | – | – | 0.696 | – | 15
12 | O=C(/C=C/c1cncs1)/C=C/c1cncs1 [Compound 29] | – | – | – | 77 | – | – | – | –
13 | O=C(/C=C/c1cscn1)/C=C/c1cscn1 [Compound 25] | 0.096 | – | 0.094 | 89 | 13.7 | – | – | –
14 | CCC(CC)n1ccnc1/C=C/C(=O)/C=C/c1nccn1C(CC)CC [Compound 32] | – | – | – | 3.4 | – | 0.25 | – | –
15 | Cn1cc(/C=C/C(=O)/C=C/c2cnn(C)c2)cn1 [Compound 38] | – | – | – | 92.8 | – | – | – | –
16 | O=C(/C=C/c1nccs1)/C=C/c1nccs1 [Compound 24] | 0.055 | – | 0.068 | 68 | 19.2 | – | – | –

Row | Structure (SMILES) | IC50 [1] [µM] | IC50 (curcumin)/IC50 (analog) [2] | IC50 [2] [µM] | HeLa Cell viability after treatment with analog (% viability) ([3]; 1 μM) [%] | HeLa Cell viability after treatment with analog (% viability) ([3]; 10 μM) [%] | IC50 [4] [µM] | IC50 (curcumin)/IC50 (analog) [1] | IC50 (curcumin)/IC50 (analog) [4]
17 | O=C(/C=C/c1ccncc1F)/C=C/c1ccncc1F [Compound 36] | – | – | – | 25.6 | – | – | – | –
18 | Cc1nc(C=C2CN(C)CC(=Cc3coc(C)n3)C2=O)co1 [Compound 7] | 0.076 | 6.4 | 0.31 | 59.5 | 59.5 | – | – | –
19 | Cn1nccc1/C=C/C(=O)/C=C/c1ccnn1C [Compound 23] | 0.16 | – | 1.9 | 59 | 82.6 | – | – | –
20 | CC(C)n1ccnc1C=C1CCCC(=Cc2nccn2C(C)C)C1=O [Compound 10] | 0.1 | – | 0.16 | 114.9 | 85.1 | – | – | –
21 | CC(C)n1ccnc1C=C1CN(C)CC(=Cc2nccn2C(C)C)C1=O [Compound 1] | 0.14 | 18 | 0.11 | 126.94 | 118.5 | – | – | –
22 | CCC(C)n1ccnc1C=C1CCCC(=Cc2nccn2C(C)CC)C1=O (stereo not shown) [Compound 11] | 0.25 | 2 | 0.83 | 100 | 100 | – | – | –
23 | Cn1nccc1C=C1CCCC(=Cc2ccnn2C)C1=O [Compound 14] | 0.73 | 7.6 | 0.26 | 88 | 71.4 | – | 0.41 | –
24 | CCCCCCn1ccnc1/C=C/C(=O)/C=C/c1nccn1CCCCCC [Compound 35] | – | – | – | 6.1 | – | 0.59 | – | 18
25 | Cc1cc(C=C2CCCC(=Cc3cc(C)no3)C2=O)on1 [Compound 19] | 0.34 | – | 0.054 | 95 | 15.9 | – | 0.9 | –
26 | CN1CC(=Cc2cnn(C)c2)C(=O)C(=Cc2cnn(C)c2)C1 [Compound 3] | 1870 | 0.03 | 76 | 100.9 | 97.8 | – | 0.0002 | –
27 | Cc1cc(C=C2CN(C)CC(=Cc3cc(C)no3)C2=O)on1 [Compound 9] | 0.69 | – | 0.13 | 75.3 | 27.8 | – | 0.4 | –
28 | Cn1cc(C=C2CCCC(=Cc3cnn(C)c3)C2=O)cn1 [Compound 13] | 90 | 0.015 | 130 | 97 | 100 | – | 0.003 | –
29 | Cc1csc(/C=C/C(=O)/C=C/c2nc(C)cs2)n1 [Compound 31] | – | – | – | 52 | – | – | – | –
30 | CCCC(C)n1ccnc1/C=C/C(=O)/C=C/c1nccn1C(C)CCC (stereo not shown) [Compound 34] | – | – | – | 7.7 | – | 0.15 | – | –
31 | CN1CC(=Cc2ccnn2C)C(=O)C(=Cc2ccnn2C)C1 [Compound 4] | 1.64 | 1.9 | 1.02 | 107.1 | 67.4 | – | 0.18 | –
32 | Cc1nc(C=C2CCCC(=Cc3coc(C)n3)C2=O)co1 [Compound 17] | 1.65 | 1 | 1.97 | 100 | 59.5 | – | 0.18 | –
